Assay results taken from the CheMixHub viscosity set.
Values joined by “and” are separate entries in the source; they are usually repeats but may differ in a detail not shown here. Identical values can stand only once.

Assay: xn = mol fraction of the nth substance listed

Cc1cccc(C)c1 + CC(C)CO
308.15 K, 101 kPa
Conditions | viscosity [mPa·s]
x2 = 0.066 | 0.543
x2 = 0.1299 | 0.555
x2 = 0.2218 | 0.581
x2 = 0.3376 | 0.635
x2 = 0.4463 | 0.714
x2 = 0.5733 | 0.862
x2 = 0.6333 | 0.954
x2 = 0.7251 | 1.146
x2 = 0.8223 | 1.479
x2 = 0.9039 | 1.794
x2 = 0.9623 | 2.218

Nc1ccccc1Cl + CC(C)CO
viscosity [mPa·s], 101 kPa
Conditions | x1 = 0.0805 | x1 = 0.1856 | x1 = 0.2856 | x1 = 0.3751 | x1 = 0.4789 | x1 = 0.5761 | x1 = 0.6805 | x1 = 0.7859 | x1 = 0.8952
303.15 K | 2.81 | 3 | 3.16 | 3.29 | 3.42 | 3.53 | 3.63 | 3.71 | 3.78
308.15 K | 2.46 | 2.66 | 2.81 | 2.92 | 3.05 | 3.15 | 3.25 | 3.33 | 3.39
313.15 K | 2.16 | 2.35 | 2.5 | 2.61 | 2.73 | 2.83 | 2.93 | 2.99 | 3.01
318.15 K | 1.9 | 2.08 | 2.23 | 2.33 | 2.45 | 2.55 | 2.65 | 2.73 | 2.78

O=S1(=O)CCCC1 + CC(C)CO
viscosity [mPa·s], 101 kPa
Conditions | x1 = 0.0598 | x1 = 0.1852 | x1 = 0.259 | x1 = 0.3891 | x1 = 0.5066 | x1 = 0.5903 | x1 = 0.7089 | x1 = 0.7888 | x1 = 0.9464
303.15 K | 2.606 | 2.541 | 2.648 | 2.978 | 3.416 | 3.853 | 4.763 | 5.677 | 6.708
308.15 K | 2.261 | 2.222 | 2.319 | 2.611 | 3.017 | 3.414 | 4.229 | 5.037 | 7.667
313.15 K | 1.971 | 1.954 | 2.045 | 2.309 | 2.681 | 3.043 | 3.778 | 4.493 | 6.786

CCCCn1cc[n+](C)c1.F[B-](F)(F)F + CC(C)O
101.33 kPa
Conditions | viscosity [mPa·s]
293.15 K, x1 = 0.8458 | 68.89
293.15 K, x1 = 0.9327 | 95.48
298.15 K, x1 = 0.1585 | 7.02
298.15 K, x1 = 0.9327 | 82.35
303.15 K, x1 = 0.2402 | 9.55
303.15 K, x1 = 0.9327 | 70.16
308.15 K, x1 = 0.2402 | 8.45
313.15 K, x1 = 0.2402 | 6.79
313.15 K, x1 = 0.3505 | 9.91
318.15 K, x1 = 0.3505 | 7.14
318.15 K, x1 = 0.4422 | 9.33
323.15 K, x1 = 0.5619 | 8.26

NCCCO + CC(C)O
Conditions | viscosity [mPa·s]
293.15 K, 101 kPa, x1 = 0.7002 | 19.25

O=S1(=O)CCCC1 + CC(C)O
viscosity [mPa·s], 101 kPa
Conditions | x1 = 0.0756 | x1 = 0.1606 | x1 = 0.2446 | x1 = 0.3418 | x1 = 0.4362 | x1 = 0.5514 | x1 = 0.6552 | x1 = 0.754 | x1 = 0.8754
303.15 K | 1.634 | 1.705 | 1.823 | 2.067 | 2.386 | 2.94 | 3.662 | 4.701 | 6.713
308.15 K | 1.438 | 1.489 | 1.616 | 1.837 | 2.128 | 2.626 | 3.274 | 4.19 | 5.992
313.15 K | – | 1.324 | 1.442 | 1.644 | 1.908 | 2.356 | 2.945 | 3.754 | 5.332

CCCCCCCCCCCCCCCCCC(=O)O + CC(C)[C@@H]1CC[C@@H](C)C[C@H]1O
100 kPa, x1 = 0.1
Conditions | viscosity [mPa·s]
313.15 K | 16.61
318.15 K | 12.62
323.15 K | 9.81

ClC(Cl)(Cl)c1ccccc1 + CC(Cl)(Cl)Cl
298.15 K, 101.33 kPa
Conditions | viscosity [mPa·s]
x2 = 0.157 | 1.93
x2 = 0.295 | 1.72
x2 = 0.423 | 1.532
x2 = 0.54 | 1.367
x2 = 0.647 | 1.222
x2 = 0.746 | 1.096
x2 = 0.837 | 0.9829
x2 = 0.921 | 0.8849

OC1COCOC1 + CC(O)CO
viscosity [mPa·s], 101 kPa
Conditions | x1 = 0.1001 | x1 = 0.2022 | x1 = 0.2993 | x1 = 0.3988 | x1 = 0.5 | x1 = 0.5991 | x1 = 0.7069 | x1 = 0.8004 | x1 = 0.9002
298.15 K | 40.55 | 35.63 | 31.87 | 28.95 | 26.18 | 23.35 | 20.25 | 17.68 | 15.39
308.15 K | 23.27 | 20.32 | 18.06 | 16.28 | 14.83 | 13.52 | 12.12 | 10.93 | 9.829
318.15 K | 14.08 | 12.09 | 10.67 | 9.707 | 9.031 | 8.445 | 7.772 | 7.179 | 6.681

Cc1ccc(O)cc1 + CCC(=O)O
viscosity [mPa·s], 101 kPa
Conditions | x2 = 0.1344 | x2 = 0.2589 | x2 = 0.3745 | x2 = 0.4823 | x2 = 0.5828 | x2 = 0.677 | x2 = 0.7653 | x2 = 0.8482 | x2 = 0.9263
298.15 K | 10.16 | 7.533 | 5.663 | 4.309 | 3.321 | 2.59 | 2.042 | 1.625 | 1.297
308.15 K | 6.121 | 4.928 | 3.983 | 3.238 | 2.597 | 2.136 | 1.709 | 1.372 | 1.112
318.15 K | 4.876 | 4.035 | 3.365 | 2.772 | 2.281 | 1.853 | 1.512 | 1.241 | 0.9766

Cc1cccc(C)c1 + CCC(C)O
308.15 K, 101 kPa
Conditions | viscosity [mPa·s]
x2 = 0.0658 | 0.532
x2 = 0.1295 | 0.544
x2 = 0.2112 | 0.563
x2 = 0.3085 | 0.592
x2 = 0.3828 | 0.622
x2 = 0.4366 | 0.653
x2 = 0.5058 | 0.696
x2 = 0.6047 | 0.792
x2 = 0.698 | 0.919
x2 = 0.8006 | 1.071
x2 = 0.9493 | 1.724

Nc1ccccc1Cl + CCC(C)O
viscosity [mPa·s], 101 kPa
Conditions | x1 = 0.0896 | x1 = 0.1798 | x1 = 0.2798 | x1 = 0.3912 | x1 = 0.4951 | x1 = 0.5894 | x1 = 0.6812 | x1 = 0.7958 | x1 = 0.8925
303.15 K | 2.78 | 2.94 | 3.11 | 3.28 | 3.41 | 3.51 | 3.6 | 3.7 | 3.76
308.15 K | 2.36 | 2.53 | 2.69 | 2.85 | 2.99 | 3.1 | 3.19 | 3.29 | 3.36
313.15 K | 2.04 | 2.21 | 2.37 | 2.53 | 2.66 | 2.77 | 2.86 | 2.96 | 3.03
318.15 K | 1.77 | 1.94 | 2.09 | 2.24 | 2.37 | 2.47 | 2.57 | 2.68 | 2.74

O=S1(=O)CCCC1 + CCC(C)O
viscosity [mPa·s], 101 kPa
Conditions | x1 = 0.0998 | x1 = 0.1988 | x1 = 0.2898 | x1 = 0.3908 | x1 = 0.4973 | x1 = 0.5943 | x1 = 0.7033 | x1 = 0.78 | x1 = 0.9045
303.15 K | 2.151 | – | 2.299 | 2.55 | 2.933 | 3.428 | 4.266 | 5.138 | 7.383
308.15 K | 1.858 | 1.884 | 2.015 | 2.246 | 2.597 | 3.049 | 3.799 | 4.576 | 6.529
313.15 K | 1.615 | 1.655 | – | 1.993 | 2.316 | 2.728 | 3.407 | 4.097 | 5.806

Cc1ccc(O)cc1 + CCCC(=O)O
viscosity [mPa·s], 101 kPa
Conditions | x2 = 0.1119 | x2 = 0.2208 | x2 = 0.327 | x2 = 0.4305 | x2 = 0.5313 | x2 = 0.6297 | x2 = 0.7257 | x2 = 0.8193 | x2 = 0.9107
298.15 K | 11.14 | 8.918 | 7.131 | 5.694 | 4.541 | 3.617 | 2.884 | 2.319 | 1.88
308.15 K | 6.522 | 5.57 | 4.738 | 4.049 | 3.417 | 2.851 | 2.364 | 1.922 | 1.517
318.15 K | 5.117 | 4.435 | 3.835 | 3.299 | 2.808 | 2.362 | 1.987 | 1.643 | 1.256

Cc1cccc(C)c1 + CCCCCCCCCC
viscosity [mPa·s], 101 kPa
Conditions | x1 = 0.0494 | x1 = 0.1119 | x1 = 0.2059 | x1 = 0.2732 | x1 = 0.4032 | x1 = 0.4856 | x1 = 0.6058 | x1 = 0.7313 | x1 = 0.8131 | x1 = 0.9342
308.15 K | 0.7221 | 0.6889 | 0.6779 | 0.6545 | 0.6148 | 0.5958 | 0.5728 | 0.5498 | 0.5392 | 0.5253
313.15 K | 0.6818 | 0.6525 | 0.6364 | 0.6134 | 0.5805 | 0.5631 | 0.542 | 0.5191 | 0.5122 | 0.4972

Cc1cccc(C)c1 + CCCCCCCCCCCC
323.15 K, 100 kPa
Conditions | viscosity
x1 = 0.453 | 0.682 mPa·s and 0.683 mPa·s
x1 = 0.757 | 0.538 mPa·s and 0.539 mPa·s
